Common to all, as to test: Ras GTP binding domain inhibition assay (Cy3-GTP/Cy5-GTP competition)
The target in one assay is Rho-A (Homo sapiens, UniProt P61586). The essentials:
(§1)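 First, His-tagged protein is coated on nickel wells overnight at 4 °C. Next, compound (20 μM single point or serial dilution) is added for 3 h at room temperature, with or without Sos exchange factor in the last hour. Finally, 100 nM labelled GTP binds for 45 min and retained signal is measured.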

In a further assay the target is T1, KRas G12D mutant (Homo sapiens, UniProt P01116, G12D).
T1 construct: fused on or other part: His tag, used for capture on nickel-coated plates
Particulars: at 20 μM. The essentials: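 Ni-plate immobilised His-Ras, overnight 4 °C; cpd 20 μM (or dilution series for IC50), 1% DMSO, 3 h RT; optional His-Sos […] last hour; Cy3- or Cy5-GTP 100 nM, 45 min RT; 3× wash; bound fluorescence read.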

The next assay deals with Rac-1 (Homo sapiens, UniProt P63000). In outline:
as §1

Where [1] appears, read: with SOS, read-out: Rho-A + SOS: % inh.
[2] abbreviates: without SOS, read-out: Rho-A: % inh.
Where [3] appears, read: with SOS, read-out: KRas G12D mutant + SOS: % inh.
Where [4] appears, read: without SOS, read-out: KRas G12D mutant: % inh.
Setting [5] is: with SOS, read-out: Rac-1 + SOS: % inh.
The mark [6] stands for this setting: without SOS, read-out: Rac-1: % inh.

Read-outs that look alike come from different tables or passages of the source.

Take `COc1c(O)nc(-c2ccccn2)nc1Oc1ccccc1` [drawing 948]: the inhibition at 20 µM at Rho-A (setting [1]) is 76 to 100%; at Rho-A (setting [2]) it was 51 to 75%; at KRas G12D mutant (setting [3]), 26 to 50%; at KRas G12D mutant (setting [4]), 26 to 50%; at Rac-1 (setting [5]), 76 to 100%; on Rac-1 (setting [6]), 76 to 100%.

Consider `COCCc1ccc(Oc2nc(-c3ccccn3)nc(O)c2OC)cc1` [drawing 949], for which the inhibition at 20 µM at Rho-A (setting [1]) lay in the range of 76 to 100%; at Rho-A (setting [2]), 76 to 100%; at KRas G12D mutant (setting [3]), 26 to 50%; at KRas G12D mutant (setting [4]), 51 to 75%; at Rac-1 (setting [5]), 76 to 100%; on Rac-1 (setting [6]), 51 to 75%.

As for `COc1ccc(Oc2nc(-c3ccccn3)nc(O)c2OC)cc1` [drawing 950], the inhibition at 20 µM on Rho-A (setting [1]) was in the range of 51 to 75%; on Rho-A (setting [2]), 51 to 75%; on KRas G12D mutant (setting [3]), 26 to 50%; on KRas G12D mutant (setting [4]), 76 to 100%; on Rac-1 (setting [5]), 51 to 75%; on Rac-1 (setting [6]), 76 to 100%.

Turning to `Oc1nc(-c2cn3ccccc3n2)nc2c(-c3ccccn3)csc12` [drawing 951], the inhibition at 20 µM at Rho-A (setting [1]) lay in the range of 1 to 25%; on Rho-A (setting [2]) it was 1 to 25%; on KRas G12D mutant (setting [3]), 1 to 25%; on KRas G12D mutant (setting [4]) it was 26 to 50%; at Rac-1 (setting [5]), 26 to 50%; on Rac-1 (setting [6]), 1 to 25%.

As to `COC1CCN(c2nc(-c3nccn3C)nc3sc(-c4ccccc4CO)c(-c4ccccc4)c23)C1` (stereo not drawn) [drawing 952], the inhibition at 20 µM is 26 to 50% on Rho-A (setting [1]); 0% on Rho-A (setting [2]); 51 to 75% at KRas G12D mutant (setting [3]); 51 to 75% on KRas G12D mutant (setting [4]); 0% at Rac-1 (setting [5]); 0% on Rac-1 (setting [6]).

As to `COC1CCN(c2nc(-c3nccn3C)nc3sc(-c4ccc(N)nc4C)c(-c4ccccc4)c23)C1` (stereo not drawn) [drawing 953], the inhibition at 20 µM was 26 to 50% at Rho-A (setting [1]); 0% at Rho-A (setting [2]); 1 to 25% at KRas G12D mutant (setting [3]); 1 to 25% at KRas G12D mutant (setting [4]); 0% on Rac-1 (setting [5]); 0% at Rac-1 (setting [6]).

For `COC1CCN(c2nc(-c3nccn3C)nc3sc(-c4ccc(CO)cc4)c(-c4ccccc4)c23)C1` (stereo not drawn) [drawing 954], the inhibition at 20 µM on Rho-A (setting [1]) is 0%; on Rho-A (setting [2]), 0%; at KRas G12D mutant (setting [3]) it was 51 to 75%; at KRas G12D mutant (setting [4]), 1 to 25%; on Rac-1 (setting [5]) it was 0%; at Rac-1 (setting [6]), 0%.

For the compound `COC1CCN(c2nc(-c3nccn3C)nc3sc(-c4ccncc4C)c(-c4ccccc4)c23)C1` (stereo not drawn) [drawing 955], the inhibition at 20 µM on Rho-A (setting [1]) is 0%; at Rho-A (setting [2]), 51 to 75%; at KRas G12D mutant (setting [3]), 26 to 50%; on KRas G12D mutant (setting [4]), 26 to 50%; at Rac-1 (setting [5]), 0%; at Rac-1 (setting [6]) it was 1 to 25%.

Consider `O=C(NCc1ccccc1)c1nc(-c2ccccn2)nc(O)c1O` [drawing 956], for which the inhibition at 20 µM at Rho-A (setting [1]) is 26 to 50%; at Rho-A (setting [2]), 0%; on KRas G12D mutant (setting [3]) it was 51 to 75%; at KRas G12D mutant (setting [4]), 51 to 75%; at Rac-1 (setting [5]) it was 51 to 75%; on Rac-1 (setting [6]), 51 to 75%.

In the case of `COC1CCN(c2nc(-c3nccn3C)nc3sc(Br)c(-c4ccccc4)c23)C1` (stereo not drawn) [drawing 957], the inhibition at 20 µM at Rho-A (setting [1]) fell in the range of 26 to 50%; on Rho-A (setting [2]) it was 1 to 25%; on KRas G12D mutant (setting [3]), 51 to 75%; at KRas G12D mutant (setting [4]), 26 to 50%; at Rac-1 (setting [5]), 1 to 25%; on Rac-1 (setting [6]), 1 to 25%.

With `COC1CCN(c2nc(-c3nccn3C)nc3sc(-c4ccnc(N(C)C)c4)c(-c4ccccc4)c23)C1` (stereo not drawn) [drawing 958], the inhibition at 20 µM on Rho-A (setting [1]) lay within 26 to 50%; at Rho-A (setting [2]), 26 to 50%; on KRas G12D mutant (setting [3]), 51 to 75%; on KRas G12D mutant (setting [4]) it was 51 to 75%; at Rac-1 (setting [5]), 51 to 75%; on Rac-1 (setting [6]), 26 to 50%.

As to `COC(=O)c1nc(-c2nccn2C)nc(O)c1O` [drawing 959], the inhibition at 20 µM on Rho-A (setting [1]) lay in the range of 51 to 75%; on Rho-A (setting [2]), 1 to 25%; on KRas G12D mutant (setting [3]) it was 26 to 50%; at KRas G12D mutant (setting [4]), 51 to 75%; on Rac-1 (setting [5]), 51 to 75%; on Rac-1 (setting [6]), 76 to 100%.

Turning to `Cn1ccnc1-c1nc(O)c(O)c(C(=O)NC2CCC2)n1` [drawing 960], the inhibition at 20 µM at Rho-A (setting [1]) was 51 to 75%; at Rho-A (setting [2]), 26 to 50%; on KRas G12D mutant (setting [3]), 26 to 50%; on KRas G12D mutant (setting [4]), 51 to 75%; on Rac-1 (setting [5]) it was 51 to 75%; at Rac-1 (setting [6]) it was 76 to 100%.

As to `Cn1ccnc1-c1nc(O)c(O)c(C(=O)N2CCCCC2)n1` [drawing 961], the inhibition at 20 µM lay within 51 to 75% on Rho-A (setting [1]); 26 to 50% at Rho-A (setting [2]); 1 to 25% on KRas G12D mutant (setting [3]); 26 to 50% at KRas G12D mutant (setting [4]); 1 to 25% at Rac-1 (setting [5]); 51 to 75% on Rac-1 (setting [6]).

As to `Cn1ccnc1-c1nc(O)c(O)c(C(=O)NC2CCCC2)n1` [drawing 962], the inhibition at 20 µM at Rho-A (setting [1]) was in the range of 76 to 100%; on Rho-A (setting [2]), 26 to 50%; on KRas G12D mutant (setting [3]), 26 to 50%; at KRas G12D mutant (setting [4]), 51 to 75%; on Rac-1 (setting [5]), 51 to 75%; on Rac-1 (setting [6]), 51 to 75%.

As for `Cn1ccnc1-c1nc(O)c(O)c(C(=O)N2CCCC2)n1` [drawing 963], the inhibition at 20 µM at Rho-A (setting [1]) was 51 to 75%; on Rho-A (setting [2]) it was 1 to 25%; on KRas G12D mutant (setting [3]), 1 to 25%; at KRas G12D mutant (setting [4]) it was 26 to 50%; at Rac-1 (setting [5]), 26 to 50%; on Rac-1 (setting [6]), 51 to 75%.

With `CCN(CC)C(=O)c1nc(-c2nccn2C)nc(O)c1O` [drawing 964], the inhibition at 20 µM lay in the range of 51 to 75% at Rho-A (setting [1]); 26 to 50% on Rho-A (setting [2]); 1 to 25% at KRas G12D mutant (setting [3]); 51 to 75% at KRas G12D mutant (setting [4]); 1 to 25% at Rac-1 (setting [5]); 26 to 50% on Rac-1 (setting [6]).

With `CC(C)NC(=O)c1nc(-c2nccn2C)nc(O)c1O` [drawing 965], the inhibition at 20 µM on Rho-A (setting [1]) was 76 to 100%; on Rho-A (setting [2]) it was 51 to 75%; on KRas G12D mutant (setting [3]), 26 to 50%; at KRas G12D mutant (setting [4]), 51 to 75%; on Rac-1 (setting [5]) it was 51 to 75%; at Rac-1 (setting [6]), 51 to 75%.

In the case of `O=C(c1nc(-c2ccccn2)nc(O)c1O)N1CCCC1` [drawing 966], the inhibition at 20 µM on Rho-A (setting [1]) lay in the range of 51 to 75%; at Rho-A (setting [2]), 76 to 100%; on KRas G12D mutant (setting [3]), 1 to 25%; at KRas G12D mutant (setting [4]) it was 51 to 75%; at Rac-1 (setting [5]), 26 to 50%; on Rac-1 (setting [6]), 26 to 50%.

Regarding `O=C(c1nc(-c2ccccn2)nc(O)c1O)N1CCc2ccccc2C1` [drawing 967], the inhibition at 20 µM on Rho-A (setting [1]) is 76 to 100%; on Rho-A (setting [2]), 76 to 100%; on KRas G12D mutant (setting [3]) it was 26 to 50%; on KRas G12D mutant (setting [4]), 51 to 75%; at Rac-1 (setting [5]), 51 to 75%; at Rac-1 (setting [6]), 76 to 100%.

For the compound `Oc1nc(-c2ncc3n2CCCC3)nc2c(-c3ccccn3)csc12` [drawing 968], the inhibition at 20 µM at Rho-A (setting [1]) was 76 to 100%; on Rho-A (setting [2]), 26 to 50%; at KRas G12D mutant (setting [3]), 51 to 75%; at KRas G12D mutant (setting [4]), 51 to 75%; on Rac-1 (setting [5]), 76 to 100%; at Rac-1 (setting [6]) it was 51 to 75%.

On to `Oc1nc(-c2ncc3ccccn23)nc2c(-c3ccccn3)csc12` [drawing 969], for which the inhibition at 20 µM lay in the range of 76 to 100% on Rho-A (setting [1]); 76 to 100% at Rho-A (setting [2]); 51 to 75% on KRas G12D mutant (setting [3]); 76 to 100% on KRas G12D mutant (setting [4]); 76 to 100% on Rac-1 (setting [5]); 76 to 100% on Rac-1 (setting [6]).

Take `COC1CCN(c2nc(-c3nccn3C)nc3sc(-c4cnn(C)c4)c(-c4ccccc4)c23)C1` (stereo not drawn) [drawing 970]: the inhibition at 20 µM is 76 to 100% at Rho-A (setting [1]); 26 to 50% on Rho-A (setting [2]); 76 to 100% on KRas G12D mutant (setting [3]); 26 to 50% on KRas G12D mutant (setting [4]); 0% at Rac-1 (setting [5]); 0% at Rac-1 (setting [6]).

Consider `COc1ccc(-c2sc3nc(-c4nccn4C)nc(N4CCC(OC)C4)c3c2-c2ccccc2)cn1` (stereo not drawn) [drawing 971], for which the inhibition at 20 µM at Rho-A (setting [1]) is 26 to 50%; on Rho-A (setting [2]) it was 51 to 75%; at KRas G12D mutant (setting [3]), 51 to 75%; at KRas G12D mutant (setting [4]), 26 to 50%; at Rac-1 (setting [5]), 0%; at Rac-1 (setting [6]), 0%.

On to `COC1CCN(c2nc(-c3nccn3C)nc3sc(-c4ccnn4C)c(-c4ccccc4)c23)C1` (stereo not drawn) [drawing 972], for which the inhibition at 20 µM at Rho-A (setting [1]) lay in the range of 76 to 100%; on Rho-A (setting [2]), 51 to 75%; on KRas G12D mutant (setting [3]), 51 to 75%; on KRas G12D mutant (setting [4]) it was 51 to 75%; at Rac-1 (setting [5]), 1 to 25%; on Rac-1 (setting [6]), 26 to 50%.

(Values after patent publication US20250296938A1, “Compounds that Interact with the Ras Superfamily for the Treatment of Cancers, Inflammatory Diseases, Rasopathies, and Fibrotic Disease” (SHY Therapeutics, LLC, priority 2018, published 2025).)
